Measurements reported in PMC10762078, “Role of UPF1-LIN28A interaction during early differentiation of pluripotent stem cells” (Nature Communications, 2024).

How the values were obtained:
[1] = system: let-7a, let-7g, miR-16-5p and their targets in CHA15 cells; assay: RT-qPCR of mature LIN28A-regulated miRNAs and CDF of let-7-5p / miR-16-5p target mRNAs (Supplementary Fig. 6f); type: cell-based, human; set-up: key to let-7a level (RT-qPCR): relative level normalised to U6 snRNA; details: Fig. s6f, dot plots, CHA15 cells
Experimental: (§1) cDNA was synthesised using RevertAid Reverse Transcriptase (Thermo Fisher Scientific, EP0441) with synthesised random hexamer (Macrogen) for total RNA or stem-loop primers for miRNA. For RT-qPCR reactions, the SensiFAST SYBR No-ROX kit (Meridian Bioscience) was used according to the manufacturer’s protocol. All data analysis and visualisation were conducted using R 3.6.1 [www.r-project.org] or GraphPad Prism 10. RT primers for miRNA and RT-qPCR primer sequences are provided in Supplementary Data 6.
Genes regulated by miRNA let-7-5p and miR-16-5p were determined by TargetScanHuman. Among miRNA targets sorted by cumulative weighted context++ score (CWCS)[57], the 100 top genes were selected and analysed using CDF. […]
Scatter
(bottom panel), respectively. f Levels of m ature endogenous m iRNAs in CHA15 cells, which were regulated by LIN28A, were assessed using RT -qPCR. Cum ulative f raction of log2 fold change in the expression of genes regulated by let-7-5p and m iR-16- 5p was shown as CDF graphs. T he relative level of m RNA was norm alised to that of U6 snRNA in (c, d, and f). K–S tests were used for e and f. Unpaired Student’s t-test was used for c , d, and f . * p < 0.05, ** p < 0.01, *** p < 0.001. Exact p -values were provided in Source data. Data are presented as m ean values ± SEM. All statistical test used were two- sided. T he m inim um num ber of independent biological replicate experim ents was a and e n = 2, b–d and f n = 3. T he experim ents were conducted three tim es, each iteration producing consistent results.

[2] = system: hPSCs; assay: RT-qPCR of pluripotency and germ-layer markers during differentiation with CPP-peptides (Supplementary Fig. 7b-e); type: cell-based, human
Experimental: For CPP-conjugated peptide delivery, HeLa, 293T, and PA-1 cells were incubated with CPP-conjugated peptides or CPP-FITC at 2 μM in DMEM with 10% FBS for 12 h a day before cell harvest. hPSCs were treated with CPP-conjugated peptides at 10 μM in mTeSR Plus Medium, and the peptide-containing medium was changed every day over 10 days. The ROCK inhibitor (Tocris Bioscience, Y-27632) treated-hPSCs were dissociated into single cells using Accutase (Merck, SCR005) and differentiated into ectoderm, mesoderm, and endoderm using the STEMdiff Trilineage Differentiation Kit ([…] Technologies, 05230) following the manufacturer’s protocol. Differentiated cells treated with CPP-conjugated peptides were analysed at 0, 3, and 5 days for ectoderm and endoderm, and at 0, 3, and 4 days for mesoderm. […]
as §1, with “Data 6. […]” for “Data 6.”
FPKM of each gene was presented f r om RNA-seq analysis. b–e hPSCs wer e treated with the indicated peptide during each germ la ye r differentiation. […]
An unpaired Student’s t-test was used for a–e. Data are presented as mean values ± SEM. All statistical test us ed wer e two-s ided. T he m inim um number of independent biological replicate experim ents was a–f n = 3. T he experiments wer e conducted three tim es, each iteration producing consistent results.

[3] = Fig. s7d, day 3, mean of 3 replicates
[4] = Fig. s7d, day 4, mean of 3 replicates

N-QKLDQKELQLEPM-C [P1, reference compound]
let-7a level (RT-qPCR) ([1]; replicate 1): 0.8272
let-7a level (RT-qPCR) ([1]; replicate 2): 1.208
let-7a level (RT-qPCR) ([1]; replicate 3): 0.9649
CXCR4 (RT-qPCR) ([2]; Day 0, replicate 1, Fig. s7e): 1.088
CXCR4 (RT-qPCR) ([2]; Day 0, replicate 2, Fig. s7e): 0.7848
CXCR4 (RT-qPCR) ([2]; Day 0, replicate 3, Fig. s7e): 1.127
CXCR4 (RT-qPCR) ([2]; Day 3, replicate 1, Fig. s7e): 801.652
CXCR4 (RT-qPCR) ([2]; Day 3, replicate 2, Fig. s7e): 485.59
CXCR4 (RT-qPCR) ([2]; Day 3, replicate 3, Fig. s7e): 555.318
CXCR4 (RT-qPCR) ([2]; Day 5, replicate 1, Fig. s7e): 1042.02
CXCR4 (RT-qPCR) ([2]; Day 5, replicate 2, Fig. s7e): 799.656
CXCR4 (RT-qPCR) ([2]; Day 5, replicate 3, Fig. s7e): 801.596
Mean CXCR4 (RT-qPCR) ([2]; CXCR4 day 3, mean of n = 3, Fig. s7e): 614.2
Mean CXCR4 (RT-qPCR) ([2]; CXCR4 day 5, mean of n = 3, Fig. s7e): 881.1
FOXA1 (RT-qPCR) ([2]; Day 0, replicate 1, Fig. s7e): 1.247
FOXA1 (RT-qPCR) ([2]; Day 0, replicate 2, Fig. s7e): 1.413
FOXA1 (RT-qPCR) ([2]; Day 0, replicate 3, Fig. s7e): 0.3396
FOXA1 (RT-qPCR) ([2]; Day 3, replicate 1, Fig. s7e): 110.429
FOXA1 (RT-qPCR) ([2]; Day 3, replicate 2, Fig. s7e): 100.761
FOXA1 (RT-qPCR) ([2]; Day 3, replicate 3, Fig. s7e): 171.159
FOXA1 (RT-qPCR) ([2]; Day 5, replicate 1, Fig. s7e): 247.532
FOXA1 (RT-qPCR) ([2]; Day 5, replicate 2, Fig. s7e): 297.277
FOXA1 (RT-qPCR) ([2]; Day 5, replicate 3, Fig. s7e): 395.679
Mean FOXA1 (RT-qPCR) ([2]; FOXA1 day 5, mean of n = 3, Fig. s7e): 313.5
SOX2 mRNA level (RT-qPCR), mean ([2]; Fig. s7b, mesoderm, day 4, mean of 3 replicates): 0.001971
BMP2 mRNA level (RT-qPCR) ([2]; Fig. s7d, Day 0, replicate 1): 0.8054
BMP4 mRNA level (RT-qPCR) ([2]; Fig. s7d, Day 0, replicate 1): 1.545
CDH2 mRNA level (RT-qPCR) ([2]; Fig. s7d, Day 0, replicate 1): 1.016
CXCR4 mRNA level (RT-qPCR) ([2]; Fig. s7d, Day 0, replicate 1): 0.9995
SNAI1 mRNA level (RT-qPCR) ([2]; Fig. s7d, Day 0, replicate 1): 1.4406
TBXT mRNA level (RT-qPCR) ([2]; Fig. s7d, Day 0, replicate 1): 1.3
BMP2 mRNA level (RT-qPCR) ([2]; Fig. s7d, Day 0, replicate 2): 1.199
BMP4 mRNA level (RT-qPCR) ([2]; Fig. s7d, Day 0, replicate 2): 0.6508
CDH2 mRNA level (RT-qPCR) ([2]; Fig. s7d, Day 0, replicate 2): 0.7569
CXCR4 mRNA level (RT-qPCR) ([2]; Fig. s7d, Day 0, replicate 2): 1.121
SNAI1 mRNA level (RT-qPCR) ([2]; Fig. s7d, Day 0, replicate 2): 0.9418
TBXT mRNA level (RT-qPCR) ([2]; Fig. s7d, Day 0, replicate 2): 0.8652
BMP2 mRNA level (RT-qPCR) ([2]; Fig. s7d, Day 0, replicate 3): 0.9954
BMP4 mRNA level (RT-qPCR) ([2]; Fig. s7d, Day 0, replicate 3): 0.8046
CDH2 mRNA level (RT-qPCR) ([2]; Fig. s7d, Day 0, replicate 3): 1.227
CXCR4 mRNA level (RT-qPCR) ([2]; Fig. s7d, Day 0, replicate 3): 0.8798
SNAI1 mRNA level (RT-qPCR) ([2]; Fig. s7d, Day 0, replicate 3): 0.6176
TBXT mRNA level (RT-qPCR) ([2]; Fig. s7d, Day 0, replicate 3): 0.8351
BMP2 mRNA level (RT-qPCR) ([2]; Fig. s7d, Day 3, replicate 1): 1.069
BMP4 mRNA level (RT-qPCR) ([2]; Fig. s7d, Day 3, replicate 1): 26.604
CDH2 mRNA level (RT-qPCR) ([2]; Fig. s7d, Day 3, replicate 1): 19.4651
CXCR4 mRNA level (RT-qPCR) ([2]; Fig. s7d, Day 3, replicate 1): 690.154
SNAI1 mRNA level (RT-qPCR) ([2]; Fig. s7d, Day 3, replicate 1): 17.0238
TBXT mRNA level (RT-qPCR) ([2]; Fig. s7d, Day 3, replicate 1): 6332.26
BMP2 mRNA level (RT-qPCR) ([2]; Fig. s7d, Day 3, replicate 2): 1.012
BMP4 mRNA level (RT-qPCR) ([2]; Fig. s7d, Day 3, replicate 2): 28.0652
CDH2 mRNA level (RT-qPCR) ([2]; Fig. s7d, Day 3, replicate 2): 19.9537
CXCR4 mRNA level (RT-qPCR) ([2]; Fig. s7d, Day 3, replicate 2): 760.409
SNAI1 mRNA level (RT-qPCR) ([2]; Fig. s7d, Day 3, replicate 2): 25.1744
TBXT mRNA level (RT-qPCR) ([2]; Fig. s7d, Day 3, replicate 2): 7659.6
BMP2 mRNA level (RT-qPCR) ([2]; Fig. s7d, Day 3, replicate 3): 1.524
BMP4 mRNA level (RT-qPCR) ([2]; Fig. s7d, Day 3, replicate 3): 46.0509
CDH2 mRNA level (RT-qPCR) ([2]; Fig. s7d, Day 3, replicate 3): 27.2966
CXCR4 mRNA level (RT-qPCR) ([2]; Fig. s7d, Day 3, replicate 3): 857.014
SNAI1 mRNA level (RT-qPCR) ([2]; Fig. s7d, Day 3, replicate 3): 26.6105
TBXT mRNA level (RT-qPCR) ([2]; Fig. s7d, Day 3, replicate 3): 10449.6
BMP2 mRNA level (RT-qPCR) ([2]; Fig. s7d, Day 4, replicate 1): 0.2301
BMP4 mRNA level (RT-qPCR) ([2]; Fig. s7d, Day 4, replicate 1): 13.0546
CDH2 mRNA level (RT-qPCR) ([2]; Fig. s7d, Day 4, replicate 1): 16.734
CXCR4 mRNA level (RT-qPCR) ([2]; Fig. s7d, Day 4, replicate 1): 712.401
SNAI1 mRNA level (RT-qPCR) ([2]; Fig. s7d, Day 4, replicate 1): 5.736
TBXT mRNA level (RT-qPCR) ([2]; Fig. s7d, Day 4, replicate 1): 3587.41
BMP2 mRNA level (RT-qPCR) ([2]; Fig. s7d, Day 4, replicate 2): 0.3418
BMP4 mRNA level (RT-qPCR) ([2]; Fig. s7d, Day 4, replicate 2): 14.5702
CDH2 mRNA level (RT-qPCR) ([2]; Fig. s7d, Day 4, replicate 2): 18.1378
CXCR4 mRNA level (RT-qPCR) ([2]; Fig. s7d, Day 4, replicate 2): 778.248
SNAI1 mRNA level (RT-qPCR) ([2]; Fig. s7d, Day 4, replicate 2): 15.183
TBXT mRNA level (RT-qPCR) ([2]; Fig. s7d, Day 4, replicate 2): 4442.19
BMP2 mRNA level (RT-qPCR) ([2]; Fig. s7d, Day 4, replicate 3): 0.2814
BMP4 mRNA level (RT-qPCR) ([2]; Fig. s7d, Day 4, replicate 3): 11.4814
CDH2 mRNA level (RT-qPCR) ([2]; Fig. s7d, Day 4, replicate 3): 17.3255
CXCR4 mRNA level (RT-qPCR) ([2]; Fig. s7d, Day 4, replicate 3): 495.057
SNAI1 mRNA level (RT-qPCR) ([2]; Fig. s7d, Day 4, replicate 3): 11.0955
TBXT mRNA level (RT-qPCR) ([2]; Fig. s7d, Day 4, replicate 3): 3830.03
SNAI1 mRNA level (RT-qPCR), mean [2, 3]: 22.94
TBXT mRNA level (RT-qPCR), mean [2, 3]: 8147
BMP4 mRNA level (RT-qPCR), mean [2, 4]: 13.04
CDH2 mRNA level (RT-qPCR), mean [2, 4]: 17.4
TBXT mRNA level (RT-qPCR), mean [2, 4]: 3953
GATA4 (RT-qPCR) ([2]; Day 0, replicate 1, Fig. s7e): 0.7242
GATA4 (RT-qPCR) ([2]; Day 0, replicate 2, Fig. s7e): 1.3517
GATA4 (RT-qPCR) ([2]; Day 0, replicate 3, Fig. s7e): 0.9241
GATA4 (RT-qPCR) ([2]; Day 3, replicate 1, Fig. s7e): 30.0473
GATA4 (RT-qPCR) ([2]; Day 3, replicate 2, Fig. s7e): 43.5025
GATA4 (RT-qPCR) ([2]; Day 3, replicate 3, Fig. s7e): 37.4013
GATA4 (RT-qPCR) ([2]; Day 5, replicate 1, Fig. s7e): 61.3703
GATA4 (RT-qPCR) ([2]; Day 5, replicate 2, Fig. s7e): 60.3509
GATA4 (RT-qPCR) ([2]; Day 5, replicate 3, Fig. s7e): 57.9664
SOX17 (RT-qPCR) ([2]; Day 0, replicate 1, Fig. s7e): 1.264
SOX17 (RT-qPCR) ([2]; Day 0, replicate 2, Fig. s7e): 0.8709
SOX17 (RT-qPCR) ([2]; Day 0, replicate 3, Fig. s7e): 0.8647
SOX17 (RT-qPCR) ([2]; Day 3, replicate 1, Fig. s7e): 1651.55
SOX17 (RT-qPCR) ([2]; Day 3, replicate 2, Fig. s7e): 1098.49
SOX17 (RT-qPCR) ([2]; Day 3, replicate 3, Fig. s7e): 1780.82
SOX17 (RT-qPCR) ([2]; Day 5, replicate 1, Fig. s7e): 1087.63
SOX17 (RT-qPCR) ([2]; Day 5, replicate 2, Fig. s7e): 1382.51
SOX17 (RT-qPCR) ([2]; Day 5, replicate 3, Fig. s7e): 1398.03
